Measured values reported in the NIST ThermoML archive (doi:10.1016/j.jct.2003.08.017).

Legend:
[1] = Molar enthalpy of transition or fusion; details: Crystal
[2] = molar heat capacity at constant pressure; details: 101.33 kPa, Small (less than 1 g) adiabatic calorimetry
[3] = Crystal

OCC1c2ccccc2-c2ccccc21 [9-fluorenemethanol]
Details	Molar enthalpy of transition or fusion [kcal/mol]	Triple point temperature [K]
[1]	6.279	–
[3]	–	376.57

[2]
Details	molar heat capacity at constant pressure [J/K/mol]
78.5 K, Crystal	74.59
79.9 K, Crystal	75.63
82.26 K, Crystal	77.22
84.64 K, Crystal	78.94
85.94 K, Crystal	79.76
87.24 K, Crystal	80.69
88.54 K, Crystal	81.69
89.84 K, Crystal	82.71
91.05 K, Crystal	83.42
92.27 K, Crystal	84.33
93.81 K, Crystal	85.44
95.68 K, Crystal	86.83
97.47 K, Crystal	88.34
99.25 K, Crystal	89.58
101.04 K, Crystal	90.8
102.74 K, Crystal	92
104.45 K, Crystal	93.28
106.15 K, Crystal	94.37
107.78 K, Crystal	95.55
110.05 K, Crystal	97.38
112.81 K, Crystal	99.34
115.57 K, Crystal	101.09
118.25 K, Crystal	103.07
120.84 K, Crystal	105.05
123.44 K, Crystal	107.15
126.04 K, Crystal	109.39
128.55 K, Crystal	111.1
131.07 K, Crystal	112.95
133.5 K, Crystal	114.39
135.94 K, Crystal	116.5
138.38 K, Crystal	118.22
140.73 K, Crystal	120.24
143.08 K, Crystal	121.92
145.44 K, Crystal	123.49
147.79 K, Crystal	125.56
150.06 K, Crystal	127.26
152.34 K, Crystal	129.25
154.61 K, Crystal	130.86
156.8 K, Crystal	132.44
158.99 K, Crystal	134.22
161.18 K, Crystal	136.08
163.38 K, Crystal	137.61
165.57 K, Crystal	139.23
167.68 K, Crystal	141.01
169.87 K, Crystal	142.68
171.98 K, Crystal	144.26
174.09 K, Crystal	145.97
176.12 K, Crystal	147.81
178.23 K, Crystal	149.54
180.26 K, Crystal	151.27
182.29 K, Crystal	153.26
184.32 K, Crystal	155.07
186.35 K, Crystal	156.65
188.38 K, Crystal	158.43
190.32 K, Crystal	160.03
192.27 K, Crystal	161.75
194.22 K, Crystal	163.44
196.17 K, Crystal	165.02
198.12 K, Crystal	167.02
200.06 K, Crystal	168.41
201.93 K, Crystal	170.12
203.88 K, Crystal	172.09
205.75 K, Crystal	173.99
207.69 K, Crystal	175.77
209.56 K, Crystal	177.8
211.43 K, Crystal	179.56
213.21 K, Crystal	181.31
215.08 K, Crystal	183.23
216.95 K, Crystal	185.04
218.73 K, Crystal	186.49
220.52 K, Crystal	188.39
222.38 K, Crystal	190.43
224.17 K, Crystal	192.38
225.96 K, Crystal	194.23
227.66 K, Crystal	195.8
229.45 K, Crystal	197.65
231.15 K, Crystal	199.09
232.86 K, Crystal	201.07
234.64 K, Crystal	202.79
236.35 K, Crystal	203.84
238.05 K, Crystal	205.56
239.75 K, Crystal	207.12
241.46 K, Crystal	208.72
243.08 K, Crystal	210.03
244.71 K, Crystal	211.22
246.41 K, Crystal	212.28
248.12 K, Crystal	213.72
249.74 K, Crystal	215.05
251.36 K, Crystal	216.5
253.07 K, Crystal	218.21
254.69 K, Crystal	219.66
256.31 K, Crystal	220.83
257.94 K, Crystal	221.75
259.56 K, Crystal	223.22
261.18 K, Crystal	224.27
262.73 K, Crystal	225.73
264.35 K, Crystal	226.9
265.97 K, Crystal	228.35
267.6 K, Crystal	229.68
269.14 K, Crystal	231.11
270.68 K, Crystal	232.43
272.14 K, Crystal	233.76
273.68 K, Crystal	235.07
276.77 K, Crystal	237.44
280.83 K, Crystal	240.46
284.15 K, Crystal	243.34
287.89 K, Crystal	246.4
291.22 K, Crystal	248.63
294.46 K, Crystal	252.05
297.55 K, Crystal	255.07
300.71 K, Crystal	258.24
303.8 K, Crystal	261.53
306.96 K, Crystal	265.22
310.05 K, Crystal	268.37
313.05 K, Crystal	272.08
316.13 K, Crystal	275.5
319.22 K, Crystal	279.32
322.22 K, Crystal	283
325.23 K, Crystal	287.49
328.23 K, Crystal	292.62
331.15 K, Crystal	297.89
334.07 K, Crystal	303.26
337 K, Crystal	308.39
339.84 K, Crystal	314.22
342.68 K, Crystal	320.06
345.44 K, Crystal	326.47
348.03 K, Crystal	332.27
350.71 K, Crystal	338.6
353.31 K, Crystal	344.72
355.99 K, Crystal	351.11
358.59 K, Crystal	357.3
360.94 K, Crystal	363.05
378.41 K, Liquid	50.2
379.63 K, Liquid	50.76
381.41 K, Liquid	51.75
383.59 K, Liquid	52.7
385.71 K, Liquid	53.72
387.58 K, Liquid	54.67
389.69 K, Liquid	55.38
